Values quoted from earlier work, collected in US20240207217A1, “IMPROVED TREATMENT METHODS FOR CABAZITAXEL” (ORBICULAR PHARMACEUTICAL TECHNOLOGIES PRIVATE LIMITED, priority 2020, published 2024).
“Also recorded” adds a separate entry of the source.

Tests used:
complement = conditions: enzyme-linked immunosorbent assays
[1] = clinical trials in patients with cancer
[2] = IV administration; high clearance and small Vd

Row | Solubility in water | Half-life (t ½) [2] | Compound | Complement activation in vitro (in words) (complement) | Incidence of infusion-site adverse events (ISAEs) [1]
1 | poorly soluble | – | CO[C@H]1C(=O)[C@]2(C)[C@@H](OC)C[C@H]3OC[C@@]3(OC(C)=O)[C@H]2[C@H](OC(=O)c2ccccc2)[C@]2(O)C[C@H](OC(=O)[C@H](O)[C@@H](NC(=O)OC(C)(C)C)c3ccccc3)C(C)=C1C2(C)C [cabazitaxel] | – | –
2 | poorly soluble | – | CC(=O)O[C@@]12CO[C@@H]1C[C@H](O)[C@@]1(C)C(=O)[C@H](O)C3=C(C)[C@@H](OC(=O)[C@H](O)[C@@H](NC(=O)OC(C)(C)C)c4ccccc4)C[C@@](O)([C@@H](OC(=O)c4ccccc4)[C@H]21)C3(C)C [docetaxel] | cause complement activation | 3-4%
3 | poorly soluble | – | CC(=O)O[C@H]1C(=O)[C@@]2(C)[C@H]([C@H](OC(=O)c3ccccc3)[C@]3(O)C[C@H](OC(=O)[C@H](O)[C@@H](NC(=O)c4ccccc4)c4ccccc4)C(C)=C1C3(C)C)[C@]1(OC(C)=O)CO[C@@H]1C[C@@H]2O [paclitaxel] | – | –
4 | – | – | Poly-oxyethylene-sorbitan monooleate [polysorbate 80] | cause complement activation; also recorded: could activate the complement system | –
5 | – | quite short | sulfobutyl-ether-beta-cyclodextrin [SBCD] | – | –
